Data reported in ChEMBL document CHEMBL5518181, “Studies of antibacterial activity (in vitro and in vivo) and mode of action for des-acyl tridecaptins (DATs)” (Eur J Med Chem, 2024).
≈ marks a conversion by molar mass, not a printed value. Calls of active or inactive are those of the source. The calls are words filed in the database; no cut-off is given here.

Columns and labels:
[1] = Chemical stability of compound at pH 2; type: physicochemical; details: buffer
[2] = AUClast in Swiss mouse kidney at 10 mg/kg, iv administered as single bolus dose and measured upto 24 hrs by LC-MS/MS analysis; type: ADME, organism-based
Klebsiella pneumoniae [3] = test: Antibacterial activity against Klebsiella pneumoniae ATCC 13883 assessed as inhibition of bacterial growth incubated for 18 hrs in presence of 25 mM bicarbonate; type: functional, organism-based
[4] = Toxicity in naive mouse assessed as animal death at >15 mg/kg, iv administered as single dose every 4 hrs for 24 hrs; type: organism-based; details: in vivo
[5] = Clearance in human microsomes; type: ADME, Microsome
Klebsiella pneumoniae [6] = test: Antibacterial activity against Klebsiella pneumoniae ATCC 43816 infected in mouse urinary tract infection model assessed as reduction in bacterial burden in kidney at <10 mg/kg, iv administered every 4 hrs and measured after 26 hrs; type: functional, organism-based
[7] = Clearance in rat microsomes; type: ADME, Microsome
Escherichia coli [8] = test: Antibacterial activity against Escherichia coli ATCC 35218 infected in Swiss albino mouse septicemia model assessed as log10 reduction in bacterial burden below stasis in kidney at 20 mg/kg, iv administered twice every 2 hrs and measured after 5 hrs; type: functional
Cytochrome P450 2B6 = molecular target: T1, Cytochrome P450 2B6 (Homo sapiens, UniProt P20813); test: Inhibition of CYP2B6 (unknown origin); type: ADME
T1 sequence (P20813 whole entry): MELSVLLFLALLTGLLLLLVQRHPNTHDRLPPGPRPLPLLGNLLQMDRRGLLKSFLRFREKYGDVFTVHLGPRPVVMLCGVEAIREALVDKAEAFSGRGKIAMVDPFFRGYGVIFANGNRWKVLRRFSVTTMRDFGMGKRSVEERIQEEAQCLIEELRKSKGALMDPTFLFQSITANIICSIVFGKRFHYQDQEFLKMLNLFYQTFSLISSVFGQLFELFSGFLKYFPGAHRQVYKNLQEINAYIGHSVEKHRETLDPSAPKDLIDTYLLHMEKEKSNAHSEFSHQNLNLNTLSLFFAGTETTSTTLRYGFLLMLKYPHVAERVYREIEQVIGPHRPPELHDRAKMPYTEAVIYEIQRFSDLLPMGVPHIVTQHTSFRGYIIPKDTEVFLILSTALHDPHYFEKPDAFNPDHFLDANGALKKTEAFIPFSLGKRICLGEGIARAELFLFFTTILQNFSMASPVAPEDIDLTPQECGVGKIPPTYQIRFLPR

Klebsiella pneumoniae [9] = test: Antibacterial activity against Klebsiella pneumoniae ATCC 13883 assessed as inhibition of bacterial growth incubated for 18 hrs in presence of 2 mM MgCl2; type: functional, organism-based
[10] = Drug uptake in Escherichia coli ATCC 25922 at 10 uM incubated for 10 mins by LC-MS/MS analysis; type: ADME
Escherichia coli [11] = test: Antibacterial activity against Escherichia coli ATCC BAA-2469 expressing NDM-1 assessed as inhibition of bacterial growth incubated for 18 hrs; type: functional; details: read-out: MIC100
Cytochrome P450 3A4 [12] = molecular target: T2, Cytochrome P450 3A4 (Homo sapiens, UniProt P08684); test: Inhibition of CYP3A4 (unknown origin); type: ADME
Escherichia coli [13] = test: Antibacterial activity against Escherichia coli ATCC 25922 harboring tolC knock-out assessed as inhibition of bacterial growth incubated for 18 hrs; type: functional; details: read-out: MIC100
Escherichia coli [14] = test: Antibacterial activity against Escherichia coli ATCC 25922 assessed as inhibition of bacterial growth incubated for 18 hrs in presence of 2 mM MgCl2; type: functional, organism-based
[15] = Cmax in Swiss mouse liver at 10 mg/kg, iv administered as single bolus dose and measured upto 24 hrs by LC-MS/MS analysis; type: ADME, organism-based
Cytochrome P450 3A4 [16] = molecular target: T2, Cytochrome P450 3A4; test: Induction of CYP3A4 (unknown origin); type: ADME
Escherichia coli [17] = test: Antibacterial activity against Escherichia coli ATCC 25922 assessed as inhibition of bacterial growth incubated for 18 hrs in presence of 150 mM NaCl; type: functional, organism-based
Cytochrome P450 1A2 = molecular target: T3, Cytochrome P450 1A2 (Homo sapiens, UniProt P05177); test: Inhibition of CYP1A2 (unknown origin); type: ADME
T3 sequence (P05177 whole entry): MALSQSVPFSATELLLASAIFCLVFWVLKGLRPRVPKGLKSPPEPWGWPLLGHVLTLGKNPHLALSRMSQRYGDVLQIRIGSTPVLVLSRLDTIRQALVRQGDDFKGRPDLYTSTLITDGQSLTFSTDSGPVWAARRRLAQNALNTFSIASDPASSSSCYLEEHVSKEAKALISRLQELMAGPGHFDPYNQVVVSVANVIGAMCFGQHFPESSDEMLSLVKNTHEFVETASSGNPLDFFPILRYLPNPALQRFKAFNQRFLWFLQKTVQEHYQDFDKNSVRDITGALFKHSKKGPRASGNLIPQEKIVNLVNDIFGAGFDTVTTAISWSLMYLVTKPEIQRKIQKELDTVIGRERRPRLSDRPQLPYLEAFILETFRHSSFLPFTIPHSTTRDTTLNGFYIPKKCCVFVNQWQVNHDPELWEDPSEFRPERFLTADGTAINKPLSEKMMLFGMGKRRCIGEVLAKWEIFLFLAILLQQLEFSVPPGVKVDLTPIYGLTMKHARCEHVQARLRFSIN

Proteus mirabilis = test: Antibacterial activity against Proteus mirabilis ATCC 7002 assessed as inhibition of bacterial growth incubated for 18 hrs; type: functional; details: read-out: MIC100
Escherichia coli [18] = test: Antibacterial activity against wild-type Escherichia coli ATCC 25922 assessed as inhibition of bacterial growth incubated for 18 hrs in presence of 50% heat inactivated human serum; type: functional; details: read-out: MIC100
[19] = Chemical stability of compound in benzylamine; type: physicochemical
Escherichia coli [20] = test: Antibacterial activity against Escherichia coli ATCC 25922 harboring hldE knock-out assessed as inhibition of bacterial growth incubated for 18 hrs; type: functional; details: read-out: MIC100
Escherichia coli [21] = test: Antibacterial activity against Escherichia coli ATCC 25922 infected in cyclophosphamide immunosuppressed mouse thigh infection model at 30 to 90 mg/kg, iv administered every 2 hrs starting from 1 hr post infection and measured 25 hrs post infection; type: functional, organism-based; details: dose 30-90 mg/kg, time 24.0 hrs
Enterobacter cloacae = test: Antibacterial activity against Enterobacter cloacae ATCC 23355 assessed as inhibition of bacterial growth incubated for 18 hrs; type: functional; details: read-out: MIC100
Staphylococcus aureus = test: Antibacterial activity against […] assessed as inhibition of bacterial growth incubated for 18 hrs; type: functional; details: ATCC 29213, read-out: MIC100
Klebsiella pneumoniae [22] = test: Antibacterial activity against Klebsiella pneumoniae ATCC BAA-2470 expressing NDM-1 assessed as inhibition of bacterial growth incubated for 18 hrs; type: functional; details: read-out: MIC100
Morganella morganii = test: Antibacterial activity against Morganella morganii ATCC 25830 assessed as inhibition of bacterial growth incubated for 18 hrs; type: functional; details: read-out: MIC100
[23] = Volume of distribution at steady state in Swiss mouse at 10 mg/kg, iv administered as single bolus dose and measured upto 24 hrs by LC-MS/MS analysis; type: ADME, organism-based; details: in vivo, read-out: Vdss
Klebsiella pneumoniae [24] = test: Antibacterial activity against wild-type Klebsiella pneumoniae ATCC 13883 assessed as inhibition of bacterial growth incubated for 18 hrs in presence of 50% heat inactivated human serum; type: functional; details: read-out: MIC100
Klebsiella pneumoniae [25] = test: Antibacterial activity against Klebsiella pneumoniae ATCC 43816 infected in mouse urinary tract infection model assessed as reduction in bacterial burden in urine at <10 mg/kg, iv administered every 4 hrs and measured after 26 hrs; type: functional, organism-based

T2 sequence (P08684 whole entry): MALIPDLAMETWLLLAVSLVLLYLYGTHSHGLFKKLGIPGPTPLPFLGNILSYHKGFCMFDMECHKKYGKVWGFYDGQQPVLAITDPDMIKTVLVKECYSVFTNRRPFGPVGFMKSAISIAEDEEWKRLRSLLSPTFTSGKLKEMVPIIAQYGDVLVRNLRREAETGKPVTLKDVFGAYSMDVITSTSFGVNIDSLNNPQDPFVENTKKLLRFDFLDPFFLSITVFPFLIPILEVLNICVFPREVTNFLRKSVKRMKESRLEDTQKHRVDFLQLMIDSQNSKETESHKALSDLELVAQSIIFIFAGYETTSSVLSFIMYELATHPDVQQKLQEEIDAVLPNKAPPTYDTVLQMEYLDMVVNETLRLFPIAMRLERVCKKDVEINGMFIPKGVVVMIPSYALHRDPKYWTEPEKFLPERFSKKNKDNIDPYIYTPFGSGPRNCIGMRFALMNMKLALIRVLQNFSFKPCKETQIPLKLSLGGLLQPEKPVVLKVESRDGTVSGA

Structure (SMILES): CC[C@H](C)[C@@H](NC(=O)[C@@H](NC(=O)[C@H](CCC(=O)O)NC(=O)[C@H](Cc1ccccc1)NC(=O)[C@@H](CCN)NC(=O)[C@H](CCN)NC(=O)[C@H](CO)NC(=O)[C@@H](Cc1c[nH]c2ccccc12)NC(=O)[C@@H](CO)NC(=O)CNC(=O)[C@@H](CCN)NC(=O)[C@H](NC(=O)[C@H](C)N)C(C)C)C(C)C)C(=O)N[C@@H](C)C(=O)O
- Stability [1]: Stable
- AUC(0-t) at 24 h [2]: 659 µg·h/mL
- Activity (Klebsiella pneumoniae [3]): Active
- Activity [4]: Toxic
- microsomal CLint [5]: 23 µL/min/mg
- Activity (Klebsiella pneumoniae [6]): Active
- microsomal CLint [7]: 19 µL/min/mg
- log(activity) (Escherichia coli [8]): ~2
- inhibition (INH) (Cytochrome P450 2B6): Not Active
- Activity (Klebsiella pneumoniae [9]): Active
- Drug uptake [10]: Active
- MIC (Escherichia coli [11]): 8 mg/L (≈ 5.46 µM)
- inhibition (INH) (Cytochrome P450 3A4 [12]): Not Active
- MIC (Escherichia coli [13]): 1 mg/L (≈ 0.682 µM)
- Activity (Escherichia coli [14]): Active
- Cmax [15]: 5.65 µg/mL
- Activity (Cytochrome P450 3A4 [16]): Not Active
- Activity (Escherichia coli [17]): Active
- inhibition (INH) (Cytochrome P450 1A2): Not Active
- MIC (Proteus mirabilis): > 64 mg/L
- MIC (Escherichia coli [18]): 2 mg/L
- Stability [19]: Stable
- MIC (Escherichia coli [20]): 4 mg/L (≈ 2.73 µM)
- Activity (Escherichia coli [21]): Active
- MIC (Enterobacter cloacae): 2 mg/L (≈ 1.36 µM)
- MIC (Staphylococcus aureus): > 64 mg/L
- MIC (Klebsiella pneumoniae [22]): 8 mg/L (≈ 5.46 µM)
- MIC (Morganella morganii): > 32 mg/L
- Vd [23]: 0.1 L/kg
- MIC (Klebsiella pneumoniae [24]): 1 mg/L
- Activity (Klebsiella pneumoniae [25]): inactive
